Source: US7897641B2, “Composition for the prevention and/or treatment of the cytotoxic effects induced by the use of immunosuppressive agents” (Sigma-Tau Industrie Farmaceutiche Riunite S.p.A., priority 2000, dated 2011)
Read-outs that look alike come from different tables or passages of the source.

Assays:
[1] = system: rats intoxicated with CCL4; assay: Protection against liver damage in rats intoxicated with CCl4; type: in vivo, rat; conditions: treatment 300 mg/kg i.p. half an hour before CCl4; for Alanine aminotranferase activity (ALT): blood 24 h after CCl4 1 mL/kg of 20% solution, controls 12.5 ± 1.7; for Triglycerides: liver 24 h after CCl4, controls 6.5 ± 0.7
Method: CCl4 was administered at the dose of 1 mL/kg of a 20% solution in olive oil according to the technique described by Bernacchi (Bernacchi A. G., Brit. J. Exp. Pathol., 61:505, 1980).
Twenty-four hours after administration of CCl4, alanine aminotransferase was assayed as an indicator of enzymatic liver damage in blood from the animals thus treated, according to the colorimetric method described by Reitman (Reitman S., Am. J. Clin. Pathol., 28:56, […]), whereas from the livers taken from the same animals triglycerides were extracted with methanol and chloroform and assayed according to the method described by Kleir (Kleir, J. Biochem. Clin. Bohenescov., 9:243, 1999). The livers were then fixed with Carnon fixative and, after embedding in paraplast, were stained with haematoxylin and eosin.

perfused rat kidneys = assay: Renal hypertension induced by cyclosporin-A or tacrolimus in perfused rat kidneys; conditions: treatment 5 mg/L each; for inhibition at 5 µg/mL: Rattus norvegicus
Text: (§1) Using the isolated rat kidney according to the technique described by Maack (Maack P., Kidney Int., 30:142, 1986) and Shure (Shure K. H., Delugers Arch., 35:4, 1975) and perfusing it with a solution containing cyclosporin-A, it is possible to detect the toxic reactions this substance induces at the renal level relating both to the renal cytomorphology, particularly at the tubular level, and to arteriolar and […] capillary vasoconstriction and the release of enzymes such as alanine aminopeptidase (AAP) and N-acetylglucosaminidase (NAG), the release of which is regarded as a sign of cell damage, as is the release of vasoactive substances such as histamine and endothelin-1.
(§2) In these tests a group of rats were used whose kidneys were isolated, after bilateral nephrectomy, and perfused according to the technique described by Schure and Maack.
(§3) The kidneys thus isolated were perfused by means of a pulsating pump both with a solution containing cyclosporin A or tacrolimus and with a solution containing propionyl L-carnitine or glycine or the two components in combination.
Arterial pressure on the perfused kidney was measured by means of a manometer connected up to the renal artery.

[2] = system: isolated, perfused rat kidneys; assay: Histamine and endothelin-1 release induced by cyclosporin-A or tacrolimus in isolated, perfused rat kidneys; conditions: for % inhibition of release, endothelin-1 / % inhibition of release, histamine: treatment 5 mg/L each, after 1 min perfusion
Text: as §1, §2, §3
(§4) A […] method was used to measure both AAP and NAG on the renal venous flow. Histamine and endothelin-1 were measured with a colorimetric method or with RIA.

[3] = system: isolated, perfused rat kidneys; assay: Renal tubular damage evaluated by release of alanine aminopeptidase (AAP) and N-acetylglucosaminidase (NAG) in isolated, perfused rat kidneys; conditions: treatment 5 mg/L each, after 5 min perfusion
Text: as §1, §2, §3, §4

[4] = system: isolated, perfused rat kidneys; assay: Glomerular and tubular morphometric abnormalities induced by cyclosporin-A in perfused rat kidney; conditions: for Morphometric indices, tubular ID/ED / Morphometric indices, glomerular CD/BD: kidneys perfused with cyclosporin-A 2 mg/L, alone or with treatment 5 mg/L; for Morphometric indices, tubular ID/ED: control 0.36 ± 0.03; for Morphometric indices, glomerular CD/BD: control 0.93 ± 0.09
Text: as §2, §3
The parameters observed on the kidneys thus perfused were the capillary diameters (CD) and the Bowman's capsule diameters (BD) and equally the external and internal diameter (ID) and also the diameter at the level of the basal membrane (ED) of at least 20 proximal tubules.

[5] = system: isolated, perfused rat kidneys; assay: Reduction of renal ATP induced by cyclosporin-A; conditions: for ATP: kidneys perfused with cyclosporin-A, alone or with treatment, control 6.70 ± 0.51
Method: as §2, §3
(§5) Lipid peroxidation was measured on samples of renal cortex as described by Longoni (Longoni B., Int. J. Tissue React., 21.7.1997-Lowry O. H., J. Biol. Bioch., 193:265, 1951) and ATP concentrations were determined according to the method described by Sumpio (Sumpio B. E., Am. J. Physiol., 247, PT2, 1047, 1984).

[6] = system: isolated, perfused rat kidneys; assay: Renal lipoperoxidation induced by cyclosporin-A (MDA + 4-HDA assay); conditions: for MDA + 4-HDA: renal cortex, kidneys perfused with cyclosporin-A, alone or with treatment, control 2.1 ± 0.91
Method: as §2, §3, §5

[7] = system: isolated and perfused rat kidney; assay: Tests of cyclosporin-A toxicity in isolated and perfused rat kidney, overall assessment; conditions: in words
Text: as §1, §2, §3

Sprague Dawley rats [8] = conditions: rat, in vivo, 500 mg/kg
Sprague Dawley rats [9] = assay: Toxicology tests, acute i.p./oral and prolonged oral administration
[10] = induced by cyclosporin-A 2 mg/L

With `ClC(Cl)(Cl)Cl` [CCl4, carbon tetrachloride, reference compound] the “Alanine aminotranferase activity (ALT)” value [1] was 105.4 ± 3.8 U/L and the Triglycerides [1] was 26.5 ± 0.11 mg/g.
With `NCC(=O)O` [Glycine, glycine] the inhibition at 5 µg/mL (perfused rat kidneys; 5 min, hypertension induced by cyclosporin-A 2 mg/L, 5 min, read-out: % inhibition of hypertensive effect after 5 min) was 6.3 ± 0.9%, the inhibition at 5 µg/mL (perfused rat kidneys; 5 min, hypertension induced by tacrolimus 400 μg/L, 5 min, read-out: % inhibition of hypertensive effect after 5 min) was 4.8 ± 7.1% and the inhibition at 5 µg/mL (perfused rat kidneys; 20 min, hypertension induced by cyclosporin-A 2 mg/L, 20 min, read-out: % inhibition of hypertensive effect after 20 min) was 6.8 ± 0.3%. For the same compound, the inhibition at 5 µg/mL (perfused rat kidneys; 20 min, hypertension induced by tacrolimus 400 μg/L, 20 min, read-out: % inhibition of hypertensive effect after 20 min) was 7.4 ± 0.9%, the “action on the release of vasoactive substances such as histamine and endothelin” value ([2]; cyclosporin A, in words) was “not significantly detectable” and the “% inhibition of release, endothelin-1” value [2, 10] was 8.8 ± 0.9%. The “% inhibition of release, histamine” value [2, 10] was 10.4 ± 1.1%, the “% inhibition of release, endothelin-1” value ([2]; induced by tacrolimus 400 μg/L) was 6.5 ± 0.7% and the “% inhibition of release, histamine” value ([2]; induced by tacrolimus 400 μg/L) was 7.5 ± 0.8%. The “% inhibition of release, AAP” value [3, 10] was 14.2 ± 0.9%, the “% inhibition of release, NAG” value [3, 10] was 16.5 ± 0.6% and the “% inhibition of release, AAP” value ([3]; induced by tacrolimus 400 μg/L) was 18.5 ± 1.1%. For the same compound, the “% inhibition of release, NAG” value ([3]; induced by tacrolimus 400 μg/L) was 17.2 ± 0.9%, the “action on the morphological damage induced by cyclosporin A” value ([4]; in words) was “not significantly detectable” and the “Morphometric indices, tubular ID/ED” value [4] was 0.66 ± 0.5. The “Morphometric indices, glomerular CD/BD” value [4] was 0.80 ± 0.5, the “action on the reduction in intracellular ATP” value ([5]; cyclosporin A, in words) was “not significantly detectable” and the ATP [5] was 4.56 ± 0.49 nM/g tissue. For the same compound, the “effect on the lipid peroxidation activity induced by cyclosporin-A” value ([6]; in words) was “detectable protective effect”, the “MDA + 4-HDA” value [6] was 4.8 ± 0.41 nmol/mg protein and the “Alanine aminotranferase activity (ALT)” value [1] was 90.2 ± 8.6 U/L. For the same compound, the Triglycerides [1] was 22.2 ± 2.1 mg/g, the “protection of the kidney against morphological/vascular and cellular biochemical damage induced by cyclosporin-A or tacrolimus” value [7] was “much less effective” and the “tolerability of prolonged oral administration” value (Sprague Dawley rats [8]) was “well tolerated”. For the same compound, the “mortality or other sign of toxic effects” value (Sprague Dawley rats [9]; intraperitoneal, 0.5 g/kg each) was “without any mortality being observed” and the “mortality or other sign of toxic effects” value (Sprague Dawley rats [9]; oral, 1 g/kg each) was “without any mortality being observed”.
With `CCC(=O)O[C@H](CC(=O)[O-])C[N+](C)(C)C` [Propionyl L-carnitine, propionyl L-carnitine] the “% inhibition of hypertensive effect after 5 min” value (perfused rat kidneys; hypertension induced by cyclosporin-A 2 mg/L, 5 min) was 18.2 ± 1.5%, the “% inhibition of hypertensive effect after 20 min” value (perfused rat kidneys; hypertension induced by cyclosporin-A 2 mg/L, 20 min) was 28.4 ± 2.1% and the “% inhibition of hypertensive effect after 5 min” value (perfused rat kidneys; hypertension induced by tacrolimus 400 μg/L, 5 min) was 22.5 ± 2.3%. The “% inhibition of hypertensive effect after 20 min” value (perfused rat kidneys; hypertension induced by tacrolimus 400 μg/L, 20 min) was 30.7 ± 2.9%, the “% inhibition of release, endothelin-1” value [2, 10] was 41.2 ± 3.8% and the “% inhibition of release, histamine” value [2, 10] was 39.5 ± 4.1%. The “% inhibition of release, endothelin-1” value ([2]; induced by tacrolimus 400 μg/L) was 34.7 ± 2.7%, the “% inhibition of release, histamine” value ([2]; induced by tacrolimus 400 μg/L) was 41.5 ± 3.9% and the “% inhibition of release, AAP” value [3, 10] was 32.8 ± 3.1%. For the same compound, the “% inhibition of release, NAG” value [3, 10] was 30.5 ± 2.6%, the “% inhibition of release, AAP” value ([3]; induced by tacrolimus 400 μg/L) was 35.1 ± 2.9% and the “% inhibition of release, NAG” value ([3]; induced by tacrolimus 400 μg/L) was 30.8 ± 2.5%. The “Morphometric indices, tubular ID/ED” value [4] was 0.40 ± 0.06, the “Morphometric indices, glomerular CD/BD” value [4] was 0.86 ± 0.7 and the ATP [5] was 6.05 ± 0.61 nM/g tissue. The “MDA + 4-HDA” value [6] was 4.2 ± 0.39 nmol/mg protein, the “Alanine aminotranferase activity (ALT)” value [1] was 75.8 ± 5.5 U/L and the Triglycerides [1] was 18.8 ± 1.8 mg/g. The “protection of the kidney against morphological/vascular and cellular biochemical damage induced by cyclosporin-A or tacrolimus” value [7] was “effective in protecting the kidney”, the “mortality or other sign of toxic effects” value (Sprague Dawley rats [9]; intraperitoneal, 0.5 g/kg each) was “without any mortality being observed” and the “tolerability of prolonged oral administration” value (Sprague Dawley rats [9]; oral 500 mg/kg each for 20 days consecutively, weight gain and blood chemistry without toxic abnormalities) was “well tolerated”. The “mortality or other sign of toxic effects” value (Sprague Dawley rats [9]; oral, 1 g/kg each) was “without any mortality being observed”.
cyclosporin-A [reference compound] was tested, and the “Morphometric indices, tubular ID/ED” value [4] was 0.75 ± 0.08, the “Morphometric indices, glomerular CD/BD” value [4] was 0.78 ± 0.02 and the ATP [5] was 4.51 ± 0.41 nM/g tissue. For the same compound, the “MDA + 4-HDA” value [6] was 6.5 ± 0.52 nmol/mg protein.
